Key:
[1] = biological target: T1, Recombinant STAT3 protein (STAT3 (G127-I722)) (Homo sapiens, UniProt P40763); assay: STAT3 Fluorescence Polarization (FP) Assay; type: binding; conditions: STAT3 25 nM, probe 5-FAM-GpYLPQTV-NH2 2 nM, 45-minute incubation; read-out: STAT3 (FP assay IC50)
T1 construct: Recombinant STAT3 protein (STAT3 (G127-I722))
How it was run: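 Displacement of a fluorescent phosphotyrosine peptide (5-FAM-GpYLPQTV-NH2, 2 nM) from 25 nM recombinant STAT3 G127-I722 was monitored by FP after 45 min at room temperature.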

[2] = biological target: T2, Recombinant STAT6 protein (STAT6 (W123-T658)) (Homo sapiens, UniProt P42226); assay: STAT6 Fluorescence Polarization (FP) Assay; type: binding; conditions: STAT6 250 nM, probe 5-FAM-Ap[…]-NH2 2 nM, 45-minute incubation; read-out: STAT6 (FP assay IC50)
T2 construct: Recombinant STAT6 protein (STAT6 (W123-T658))
T2 sequence (P42226 123-658): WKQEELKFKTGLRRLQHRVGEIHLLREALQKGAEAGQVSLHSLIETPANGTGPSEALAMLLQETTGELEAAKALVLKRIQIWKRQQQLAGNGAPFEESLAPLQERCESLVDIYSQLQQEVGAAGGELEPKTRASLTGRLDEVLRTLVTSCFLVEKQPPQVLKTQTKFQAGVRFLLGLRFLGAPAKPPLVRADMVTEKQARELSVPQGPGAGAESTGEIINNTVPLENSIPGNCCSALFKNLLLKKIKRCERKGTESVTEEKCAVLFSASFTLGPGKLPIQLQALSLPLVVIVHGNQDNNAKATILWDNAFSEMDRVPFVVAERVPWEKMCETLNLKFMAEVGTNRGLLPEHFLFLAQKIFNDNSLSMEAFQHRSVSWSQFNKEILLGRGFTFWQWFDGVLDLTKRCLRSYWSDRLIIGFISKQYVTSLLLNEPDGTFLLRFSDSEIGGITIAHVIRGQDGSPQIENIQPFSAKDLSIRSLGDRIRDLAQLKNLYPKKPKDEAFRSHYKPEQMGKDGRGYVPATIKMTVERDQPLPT
How it was run: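 Recombinant STAT6 (W123-T658) at 250 nM mixed with 2 nM 5-FAM phosphotyrosine peptide probe in HEPES pH 7.4 buffer with DTT, 1% DMSO final, added to serially diluted compounds. FP (mP) read after 45 min at room temperature; IC50 by nonlinear regression vs log concentration.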

T1 sequence (P40763 127-722): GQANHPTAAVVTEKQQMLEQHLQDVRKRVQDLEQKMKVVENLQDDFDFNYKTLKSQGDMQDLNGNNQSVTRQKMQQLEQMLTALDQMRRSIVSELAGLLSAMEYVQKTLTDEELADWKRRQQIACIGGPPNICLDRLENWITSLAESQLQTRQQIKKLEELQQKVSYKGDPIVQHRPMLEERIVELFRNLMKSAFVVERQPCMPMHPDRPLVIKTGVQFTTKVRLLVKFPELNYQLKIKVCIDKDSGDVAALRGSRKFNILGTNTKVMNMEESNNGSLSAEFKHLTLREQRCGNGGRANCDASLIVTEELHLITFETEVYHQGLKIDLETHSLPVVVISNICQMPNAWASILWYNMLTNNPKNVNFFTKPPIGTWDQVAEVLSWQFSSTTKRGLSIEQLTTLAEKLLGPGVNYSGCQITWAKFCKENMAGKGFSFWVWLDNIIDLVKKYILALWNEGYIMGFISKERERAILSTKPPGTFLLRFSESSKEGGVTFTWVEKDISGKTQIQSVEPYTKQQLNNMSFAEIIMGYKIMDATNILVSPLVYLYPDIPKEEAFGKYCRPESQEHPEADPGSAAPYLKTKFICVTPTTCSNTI

With O=C(N[C@H]1CCC2(CC2)C[C@H]2CC[C@@H](C(=O)N3CC(c4cccnc4)C3)N2C1=O)c1cc2cc(C(F)(F)P(=O)(O)O)ccc2s1 [Compound 25, (difluoro(2-(((3′S,6′S,10a′R)-5′-oxo-3′-(3-(pyridin-3-yl)azetidine-1-carbonyl)octahydro-1′H-spiro [cyclopropane-1,9′-pyrrolo[1,2-a]azocin]-6′-yl)carbamoyl)benzo[b]thiophen-5-yl)methyl) phosphonic acid] the IC50 [1] was < 100 nM and the IC50 [2] was 300 to 3000 nM.
In the case of O=C(N[C@H]1CC/C=C\[C@H]2CC[C@@H](C(=O)N3CC(c4cccnc4)C3)N2C1=O)c1cc2cc(C(F)(F)P(=O)(O)O)ccc2s1 [Compound 26, (difluoro(2-(((3S,6S,10aR,Z)-5-oxo-3-(3-(pyridin-3-yl)azetidine-1-carbonyl)-1,2,3,5,6,7,8,10a-octahydropyrrolo[1,2-a]azocin-6-yl)carbamoyl)benzo[b]thiophen-5-yl)methyl) phosphonic acid], the IC50 [1] is reported as < 100 nM and the IC50 [2] is reported as 300 to 3000 nM.
O=C(N[C@H]1CCC[C@H]2CC[C@@H](C(=O)Nc3ccc(-c4ccccc4)cc3)N2C1=O)c1ccc2ccc(C(F)(F)P(=O)(O)O)cc2c1 [Compound 29, ((7-(((3S,6S,9aS)-3-([1,1′-biphenyl]-4-ylcarbamoyl)-5-oxooctahydro-1H-pyrrolo[1,2-a]azepin-6-yl)carbamoyl)naphthalen-2-yl)difluoromethyl) phosphonic acid] gave an IC50 [1] of 100 to 1000 nM and an IC50 [2] of 3000 to 30000 nM.
In the case of CN(C(=O)[C@@H]1CC[C@@H]2C/C=C\C[C@H](NC(=O)c3cc4cc(C(F)(F)P(=O)(O)O)ccc4[nH]3)C(=O)N21)c1ccccc1 [Compound 30], the IC50 [1] is reported as 1000 to 10000 nM and the IC50 [2] is reported as 300 to 3000 nM.
In the case of O=C(N[C@H]1CCC[C@H]2CC[C@@H](C(=O)NCc3c[nH]c4ncccc34)N2C1=O)c1cc2cc(C(F)(F)P(=O)(O)O)ccc2s1 [Compound 31, ((2-(((3S,6S,9aS)-3-(((1H-pyrrolo[2,3-b]pyridin-3-yl)methyl)carbamoyl)-5-oxooctahydro-1H-pyrrolo[1,2-a]azepin-6-yl)carbamoyl)benzo [b]thiophen-5-yl)difluoromethyl) phosphonic acid], the IC50 [1] is reported as 100 to 1000 nM and the IC50 [2] is reported as 300 to 3000 nM.
With CS(=N)(=O)CC1CN(C(=O)[C@@H]2CC[C@@H]3CCC[C@H](NC(=O)c4cc5cc(C(F)(F)P(=O)(O)O)ccc5s4)C(=O)N32)C1 (stereo partly drawn) [Compound 32, (difluoro(2-(((3S,6S,9aS)-3-(3-((S-methyl-sulfonimidoyl)methyl)azetidine-1-carbonyl)-5-oxooctahydro-1H-pyrrolo[1,2-a]azepin-6-yl)carbamoyl)benzo[b]thiophen-5-yl)methyl) phosphonic acid] the IC50 [1] was < 100 nM and the IC50 [2] was 3000 to 30000 nM.
In the case of O=C(N[C@H]1CCC[C@H]2CC[C@@H](C(=O)N3CC(c4cccnc4)C3)N2C1=O)c1cc2cc(C(F)(F)P(=O)(O)O)ccc2s1 [Compound 33, (difluoro(2-(((3S,6S,9S)-5-oxo-3-(3-(pyridin-3-yl)azetidine-1-carbonyl)octahydro-1H-pyrrolo[1,2-a]azepin-6-yl)carbamoyl)benzo[b]thiophen-5-yl)methyl) phosphonic acid], the IC50 [1] is reported as < 100 nM and the IC50 [2] is reported as 300 to 3000 nM.
Work on O=C(N[C@H]1CCC[C@H]2CC[C@@H](C(=O)N3CC(N4CCOCC4)C3)N2C1=O)c1cc2cc(C(F)(F)P(=O)(O)O)ccc2s1 [Compound 34, (difluoro(2-(((3S,6S,9aS)-3-(3-morpholino-azetidine-1-carbonyl)-5-oxooctahydro-1H-pyrrolo[1,2-a]azepin-6-yl)carbamoyl)benzo[b]thiophen-5-yl)methyl) phosphonic acid] yielded an IC50 [1] of 100 to 1000 nM and an IC50 [2] of 3000 to 30000 nM.
O=C(/C=C/c1ccc(C(F)(F)P(=O)(O)O)cc1)N[C@H]1CCC[C@H]2CC[C@@H](C(=O)Nc3ccc(-c4ccccc4)cc3)N2C1=O [Compound 35, ((4-((E)-3-(((3S,6S,9S)-3-([1,1′-biphenyl]-4-ylcarbamoyl)-5-oxooctahydro-1H-pyrrolo[1,2-a]azepin-6-yl)amino)-3-oxoprop-1-en-1-yl)phenyl)difluoromethyl) phosphonic acid] was tested, and the IC50 [1] was > 10000 nM and the IC50 [2] was 3000 to 30000 nM.
For O=C(N[C@H]1CCCC[C@H]2CC[C@@H](C(=O)N3CC(Cc4ccccc4)C3)N2C1=O)c1cc2cc(C(F)(F)P(=O)(O)O)ccc2s1 [Compound 36, ((2-(((3S,6S,10aS)-3-(3-benzylazetidine-1-carbonyl)-5-oxodecahydro-pyrrolo[1,2-a]azocin-6-yl)carbamoyl)benzo[b]thiophen-5-yl)difluoromethyl) phosphonic acid], the IC50 [1] was < 100 nM and the IC50 [2] was 300 to 3000 nM.
With O=C(N[C@H]1CCCC[C@H]2CC[C@@H](C(=O)NCc3n[nH]c4ncccc34)N2C1=O)c1cc2cc(C(F)(F)P(=O)(O)O)ccc2s1 [Compound 37, ((2-(((3S,6S,10aS)-3-(((1H-pyrazolo[3,4-b]pyridin-3-yl)methyl)carbamoyl)-5-oxodecahydro-pyrrolo[1,2-a]azocin-6-yl)carbamoyyl)benzo[b]thiophen-5-yl)difluoro-methyl) phosphonic acid] the IC50 [1] was 100 to 1000 nM and the IC50 [2] was 300 to 3000 nM.
With Cn1c(C2CN(C(=O)[C@@H]3CC[C@@H]4CCCC[C@H](NC(=O)c5cc6cc(C(F)(F)P(=O)(O)O)ccc6s5)C(=O)N43)C2)nc2ccccc21 [Compound 38, (difluoro(2-(((3S,6S,10aS)-3-(3-(1-methyl-1H-benzo[d]imidazol-2-yl)azetidine-1-carbonyl)-5-oxodecahydropyrrolo [1,2-a]azocin-6-yl)carbamoyl)benzo[b]thiophen-5-yl)methyl) phosphonic acid] the IC50 [1] was < 100 nM and the IC50 [2] was 300 to 3000 nM.
Work on O=C(N[C@H]1CCCC[C@H]2CC[C@@H](C(=O)N3CC(Oc4ccccc4)C3)N2C1=O)c1cc2cc(C(F)(F)P(=O)(O)O)ccc2s1 [Compound 39, (difluoro(2-(((3S,6S,10aS)-5-oxo-3-(3-phenoxyazetidine-1-carbonyl)decahydropyrrolo [1,2-a]azocin-6-yl)carbamoyl)benzo[b]thiophen-5-yl)methyl) phosphonic acid] yielded an IC50 [1] of 100 to 1000 nM and an IC50 [2] of 300 to 3000 nM.
Compound C[C@]1(NC(=O)c2cc3cc(C(F)(F)P(=O)(O)O)ccc3s2)CCCC[C@H]2CC[C@@H](C(=O)N3CC(C(=O)N4CCOCC4)C3)N2C1=O [Compound 40, (difluoro(2-(((3S,6S,10aS)-6-methyl-3-(3-(morpholine-4-carbonyl)azetidine-1-carbonyl)-5-oxodecahydropyrrolo [1,2-a]azocin-6-yl)carbamoyl)benzo[b]thiophen-5-yl)methyl) phosphonic acid] has an IC50 [1] of 100 to 1000 nM and an IC50 [2] of 3000 to 30000 nM.
O=C(N[C@H]1CCCC[C@H]2CC[C@@H](C(=O)N3CC4(CN(C(=O)Cc5ccccc5)C4)C3)N2C1=O)c1cc2cc(C(F)(F)P(=O)(O)O)ccc2s1 [Compound 42, (difluoro(2-(((3S,6S,10aS)-5-oxo-3-(6-(2-phenylacetyl)-2,6-diazaspiro[3.3]heptane-2-carbonyl)decahydropyrrolo [1,2-a]azocin-6-yl)carbamoyl)benzo[b]thiophen-5-yl)methyl) phosphonic acid] was tested, and the IC50 [1] was 100 to 1000 nM and the IC50 [2] was ≤ 300 nM.
With O=C(N[C@H]1CCC[C@H]2CC[C@@H](C(=O)N3CC(c4nc5ccccc5[nH]4)C3)N2C1=O)c1cc2cc(C(F)(F)P(=O)(O)O)ccc2s1 [Compound 43, ((2-(((3S,6S,9aS)-3-(3-(1H-benzo[d]imidazol-2-yl)azetidine-1-carbonyl)-5-oxooctahydro-1H-pyrrolo[1,2-a]azepin-6-yl)carbamoyl)benzo[b]thiophen-5-yl)difluoromethyl) phosphonic acid] the IC50 [1] was < 100 nM and the IC50 [2] was 300 to 3000 nM.
For COc1ccc(N(C)C(=O)[C@@H]2CC[C@@H]3CCCC[C@H](NC(=O)c4cc5cc(C(F)(F)P(=O)(O)O)ccc5s4)C(=O)N32)cn1 [Compound 44, (difluoro(2-(((3S,6S,10aS)-3-((6-methoxypyridin-3-yl)(methyl)carbamoyl)-5-oxodecahydro-pyrrolo[1,2-a]azocin-6-yl)carbamoyl)benzo[b]thiophen-5-yl)methyl) phosphonic acid], the IC50 [1] was 1000 to 10000 nM and the IC50 [2] was 300 to 3000 nM.
O=C(N[C@H]1CCC[C@H]2CC[C@@H](C(=O)N3CC(O)(c4ccccn4)C3)N2C1=O)c1cc2cc(C(F)(F)P(=O)(O)O)ccc2s1 [Compound 45, (difluoro(2-(((3S,6S,9aS)-3-(3-hydroxy-3-(pyridin-2-yl)azetidine-1-carbonyl)-5-oxooctahydro-1H-pyrrolo[1,2-a]azepin-6-yl)carbamoyl)benzo[b]thiophen-5-yl)methyl) phosphonic acid] was tested, and the IC50 [1] was < 100 nM and the IC50 [2] was 300 to 3000 nM.
